In patent EP4623908A1, “USE OF (-)-EPIGALLOCATECHIN GALLATE COMPOUND” (CF Pharmtech, Inc., priority 2022, dated 2024):

System: Pulmonary Fibrosis Induced by Bleomycin in Rats
Assay: Bleomycin-induced pulmonary fibrosis model in rats (Example 5)
Format: in vivo, SD rats
Conditions: for Hydroxyproline Content: rat lung tissue, Mean ±SEM
Experimental: This study aims to compare the effects of different administration methods, including oral gavage of EGCG, tracheal nebulization of pirfenidone solution, and tracheal nebulization of EGCG at different doses, on the collagen content in lung tissues and pathological observations of rats with bleomycin-induced pulmonary fibrosis. The therapeutic effect of inhaled EGCG on rat pulmonary fibrosis was evaluated.
The solvents for the EGCG nebulization solution, modeling agents, and their solvents are as described in Example 4. The positive control drug is pirfenidone (purity 99%, pharmaceutical grade), with the solvent components consisting of NaCl and citric acid, forming a clear liquid.
SPF-grade SD rats, 6-9 weeks old with a weight of 200-300g, totaling 88 rats, were randomly divided into the following groups: • Sham operation group (normal control) (8 rats) • Pulmonary fibrosis model control group (10 rats) • Oral gavage EGCG group 1 (10 rats) • Oral gavage EGCG group 2 (10 rats) • Tracheal Nebulization EGCG solution groups 1-4 (10 rats per group, total 40 rats) • Tracheal Nebulization pirfenidone solution group (10 rats)
On D1, the normal control group was administered solvent 2 (saline injection solution, 1 mL/kg) via tracheal nebulization, while all other groups were administered bleomycin (2.5 mg/kg, 1 mL/kg) via tracheal nebulization twice a day (morning and afternoon) to establish the model. On D8, the body weights of the animals were recorded. From D10 to D28, the normal control and pulmonary fibrosis model groups were treated with solvent 1 via tracheal nebulization, while the remaining groups were administered EGCG or pirfenidone once daily at the following doses and administration methods: • Oral gavage EGCG group 1 and 2: 30 mg/kg, 60 mg/kg • Tracheal Nebulization EGCG group 1-4: 0.05 mg/kg, 0.4 mg/kg, 0.8 mg/kg, 1.6 mg/kg • Tracheal Nebulization pirfenidone solution group: 0.9 mg/kg (reference dose from M.W. Surber et al., ATS POSTER, 2014)
On D29, all animals were euthanized for dissection. During the necropsy, the lungs, trachea, and bronchi were examined for abnormalities. Left lung tissue was preserved at below -60°C for hydroxyproline content detection, and right lung tissue was prepared for pathological sectioning. Hematoxylin and eosin (HE) staining and Masson staining were performed for pathological morphological observations and fibrosis evaluation.
All groups were compared to the model group using statistical analysis via Kruskal-Wallis test. The results are indicated as follows: • *P < 0.05: statistically significant difference • **P < 0.01: highly significant difference • ***P < 0.001: extremely significant difference • ****P < 0.0001: extremely highly significant difference

## O=C(O[C@@H]1Cc2c(O)cc(O)cc2O[C@@H]1c1cc(O)c(O)c(O)c1)c1cc(O)c(O)c(O)c1 [EGCG, (-)-Epigallocatechin gallate]
Inhalation 0.05 (P < 0.05), 0.4 (P < 0.0001), 0.8 and 1.6 mg/kg (P < 0.001)
  hydroxyproline content in rat lungs, difference from the model group: significantly reduced
Oral administration 30 mg/kg, 60 mg/kg
  hydroxyproline content in rat lungs, difference from the model group: not statistically significant
Inh 0.05mg/kg once daily D10 to D28
  Hydroxyproline Content: 0.528 ± 0.038 µg/µL
Inh 0.4mg/kg once daily D10 to D28
  Hydroxyproline Content: 0.433 ± 0.023 µg/µL
Inh 0.8mg/kg once daily D10 to D28
  Hydroxyproline Content: 0.485 ± 0.027 µg/µL
Inh 1.6 mg/kg once daily D10 to D28
  Hydroxyproline Content: 0.465 ± 0.028 µg/µL
PO 30mg/kg once daily D10 to D28
  Hydroxyproline Content: 0.608 ± 0.012 µg/µL
PO 60mg/kg once daily D10 to D28
  Hydroxyproline Content: 0.546 ± 0.026 µg/µL
